Results on five molecules are retold here after patent publication US11857552B2, “4-[[(7-aminopyrazolo[1,5-a]pyrimidin-5-yl)amino]methyl]piperidin-3-ol compounds as CDK inhibitors” (Carrick Therapeutics Limited, priority 2017, dated 2024).

Data set [1] concerns the target human CDK7/cycH/MAT1 (Homo sapiens (Human), UniProt P50613). Put plainly: CDK7 IC50 (ADP-Glo kinase assay). As to conditions: for IC50: ATP 8 μM, CDKtide substrate; for Ratio CDK2/CDK7: CDK2 IC50 / CDK7 IC50 selectivity; for CDK2/CDK7 Selectivity: Improvement vs. REF-001: ratio of CDK2/CDK7 ratios; for CDK7 Potency: Improvement vs. REF-001: ratio of CDK7 IC50 of REF-001 to compound. The class given is biochemical. The protocol: (§1) A reaction mixture (6 μL) containing the following components was prepared: 60 mM HEPES (60 mM, pH 7.5), sodium orthovanadate (3 μM), PEG-20000 (50 μg/mL), DTT (1.2 mM), MgCl2 (3 mM), MnCl2 (3 mM), purified human CDK7/cycH/MAT1 (4 μg/mL), CDKtide (10 μM), ATP (8 μM) and test compound at the appropriate concentration such that the final concentration of DMSO was 1% w/w. The reaction mixture was incubated at 30° C. for 30 min and then stopped by the addition of ADP-Glo Reagent (6 μL). The reaction was incubated at 25° C. for 1 h to deplete the remaining ATP. Subsequently, Kinase Detection Reagent (12 μL) was added and the reaction was allowed to proceed for 1 h at 25° C. before analysis by luminescence measurement using an Envision Plate Reader (Perkin Elmer).

Data set [2] in a line: Human Plasma Protein Binding (PPB), RED device. The class given is in vitro ADME. As to conditions: for Free Fraction: Improvement vs. REF-001: human plasma; for Human PPB / fraction unbound at 240 min, 5 µM: human plasma pH 7.4, 37° C., 240 min. The protocol: Method 4: Human Plasma Protein Binding (PPB)
Materials and solutions: • Human Plasma (Sera Labs, […]). • Bupropion hydrochloride (Sigma, B102). • DPBS (Sigma, D8537). • Formic Acid (Sigma, F0507). • RED Device Single Use (Life Technologies, 90006). • Internal standard solution preparation: A solution of bupropion hydrochloride (50 μL, 10 mM in DMSO) was combined with 0.1% formic acid (1 mL) in acetonitrile (1000 mL).
Once frozen plasma was defrosted and adjusted to pH 7.4 using 1 M lactic acid solution and a portion of this mixture (792 μL) combined with each test compound solution (8 μL, 0.5 mM in DMSO). Portions of the resultant spiked plasma (200 μL) were added to sample compartments of the RED device. DBPS (350 μL) was added to each corresponding buffer compartment. An initial sample (50 μL) was taken and then the RED plate was sealed and incubated at 37° C. for 240 min on an orbital shaker (200 rpm) in a humidified CO2 (5%) atmosphere, alongside plasma and DBPS samples. Each sample well was treated with internal standard solution (300 μL). Aliquots (50 μL) were removed from each buffer well and sample well and replaced with incubated plasma (50 μL) or incubated DPBS (50 μL) respectively. The plate was sealed and centrifuged (3500 rpm, 15 min). Aliquots of the supernatant (100 μL) were combined with water (50 μL) for analysis using a Waters TQS Mass Spectrometer.

In data set [3] the target is MDR1 (Homo sapiens (Human), UniProt P08183). Description: MDCK-MDR1 Efflux Ratio. It is filed as in vitro ADME. Particulars: dog, MDCK-MDR1, pH 7.4, HBSS pH 7.4, 37° C. The procedure:
Method 5: MDCK-MDR1 Efflux Ratio
Materials and solutions: • MDCK/MDR1 Ready™ cell plate (Readycell). • High Glucose Cell Culture Medium (Sigma, D5671) supplemented with: 10% FBS, 1% Glutamine 200 mM, 1% Penicillin (10,000 U/mL)—Streptomycin (10 mg/mL). • HBSS Buffer (Gibco, 14065-049). • Internal standard: 0.5 μM Bupropion in acetonitrile/0.1% formic acid (aq) (1:1 v/v).
HBSS assay buffer was prepared at pH 7.4 and warmed to 37° C. The cell culture media was removed from the Readycell plate. The Basal cells were washed with HBSS buffer (3×225 μL) and the Apical cells were washed with HBSS buffer (3×75 μL). The cells were warmed to 37° C. in a humidified CO2 (5%) atmosphere and shaken at 250 rpm for 30 min. Compound and standard solutions were prepared by diluting each compound (10 μL, 1 mM in DMSO) with HBSS (990 μL). The buffer was carefully removed from the Basal cell plate, followed by the Apical cell plate. HBSS buffer (225 μL) and compound solution (250 μL) were added to the Basal cell plate. An aliquot (25 μL) of the solutions were combined with internal standard (75 μL) and refrigerated for use as the t=0 h sample. HBSS buffer (75 μL) and compound solution (100 μL) were added to the Apical cell plate. An aliquot (25 μL) was taken and processed in the same manner as for the Basal cell plate. […]

For data set [4], the target named is human CDK2/cycE1 (Homo sapiens (Human), UniProt P24941). Description: CDK2 IC50 (ADP-Glo kinase assay). Particulars: ATP 20 μM, histone H1 substrate. It is filed as biochemical. The protocol:
as §1, with “mM),” for “mM), MnCl2 (3 mM),”, “human CDK2/cycE1” for “human CDK7/cycH/MAT1”, “μg/mL), histone H1 (50 μg/mL),” for “μg/mL), CDKtide (10 μM),”, “ATP (20” for “ATP (8”, “for 75” for “for 30”
Background: ADP-Glo turns the ADP formed in a reaction into a luminescent signal.

For data set [5], the target named is human CDK9/cycK (Homo sapiens (Human), UniProt P50750). Description: CDK9 IC50 (ADP-Glo kinase assay). The class given is biochemical. As to conditions: ATP 8 μM, CDKtide substrate. The protocol: In addition to those mentioned above for Method 1: • Human CDK9/cycK (Promega, V4104). • CDKtide (SignalChem, C06-58).
as §1, with “mM),” for “mM), MnCl2 (3 mM),”, “human CDK9/cycK (2.5” for “human CDK7/cycH/MAT1 (4”, “CDKtide (35” for “CDKtide (10”, “for 60” for “for 30”

The target in data set [6] is BCRP (Homo sapiens (Human), UniProt Q9UNQ0). Put plainly: MDCK-BCRP Efflux Ratio. The class given is in vitro ADME. Particulars: dog, pH 7.4, HBSS pH 7.4, 37° C. From the text: Method 6: MDCK-BCRP Efflux Ratio
Essentially the same as Method 5, but using MDCK/BCRP Ready™ cell plates (Readycell) in place of MDCK/MDR1 plates.

The subject of data set [7] is MCF-7 breast cancer cell line. As to conditions: with 4-hydroxytamoxifen or Faslodex, ERα-positive MCF-7 cells; cited from earlier work.

Each structure is given as a SMILES string.

Chain of human CDK9/cycK (P50750 whole entry): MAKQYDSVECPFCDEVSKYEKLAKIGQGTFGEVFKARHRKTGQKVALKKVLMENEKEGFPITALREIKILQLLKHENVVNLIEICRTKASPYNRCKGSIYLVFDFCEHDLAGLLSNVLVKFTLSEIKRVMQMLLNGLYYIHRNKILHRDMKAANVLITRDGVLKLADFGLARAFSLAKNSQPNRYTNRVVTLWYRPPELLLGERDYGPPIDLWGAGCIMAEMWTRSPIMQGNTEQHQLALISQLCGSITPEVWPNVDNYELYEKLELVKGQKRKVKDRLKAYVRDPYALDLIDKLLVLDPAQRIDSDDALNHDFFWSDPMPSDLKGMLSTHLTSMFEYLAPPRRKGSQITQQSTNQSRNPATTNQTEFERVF
Chain of human CDK9/cycK (O75909 whole entry partner): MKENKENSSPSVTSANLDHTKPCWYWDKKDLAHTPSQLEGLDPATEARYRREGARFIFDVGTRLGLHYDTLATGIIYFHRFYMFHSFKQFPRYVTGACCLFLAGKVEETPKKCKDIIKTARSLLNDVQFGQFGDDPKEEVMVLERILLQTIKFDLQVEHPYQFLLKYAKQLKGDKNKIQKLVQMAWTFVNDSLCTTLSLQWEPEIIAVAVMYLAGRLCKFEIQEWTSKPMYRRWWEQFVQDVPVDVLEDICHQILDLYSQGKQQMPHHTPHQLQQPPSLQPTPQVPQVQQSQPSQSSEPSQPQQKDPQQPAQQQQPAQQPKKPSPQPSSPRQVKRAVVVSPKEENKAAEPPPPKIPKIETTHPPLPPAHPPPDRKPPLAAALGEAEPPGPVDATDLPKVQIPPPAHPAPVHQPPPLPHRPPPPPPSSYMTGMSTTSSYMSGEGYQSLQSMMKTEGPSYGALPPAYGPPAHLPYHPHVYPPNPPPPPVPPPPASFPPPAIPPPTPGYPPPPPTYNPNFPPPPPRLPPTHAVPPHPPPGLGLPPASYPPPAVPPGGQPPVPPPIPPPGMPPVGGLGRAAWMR
Chain of human CDK7/cycH/MAT1 (P50613 whole entry): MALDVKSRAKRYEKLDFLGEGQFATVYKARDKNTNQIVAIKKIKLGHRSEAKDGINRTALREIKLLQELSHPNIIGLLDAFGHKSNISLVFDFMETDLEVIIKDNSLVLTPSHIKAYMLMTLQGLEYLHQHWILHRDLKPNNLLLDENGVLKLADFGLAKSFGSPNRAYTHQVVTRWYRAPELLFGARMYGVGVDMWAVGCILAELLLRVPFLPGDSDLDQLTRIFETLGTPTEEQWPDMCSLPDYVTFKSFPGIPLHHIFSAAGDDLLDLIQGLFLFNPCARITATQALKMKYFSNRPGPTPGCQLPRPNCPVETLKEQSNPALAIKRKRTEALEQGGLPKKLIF
Chain of human CDK7/cycH/MAT1 (P51946 whole entry partner): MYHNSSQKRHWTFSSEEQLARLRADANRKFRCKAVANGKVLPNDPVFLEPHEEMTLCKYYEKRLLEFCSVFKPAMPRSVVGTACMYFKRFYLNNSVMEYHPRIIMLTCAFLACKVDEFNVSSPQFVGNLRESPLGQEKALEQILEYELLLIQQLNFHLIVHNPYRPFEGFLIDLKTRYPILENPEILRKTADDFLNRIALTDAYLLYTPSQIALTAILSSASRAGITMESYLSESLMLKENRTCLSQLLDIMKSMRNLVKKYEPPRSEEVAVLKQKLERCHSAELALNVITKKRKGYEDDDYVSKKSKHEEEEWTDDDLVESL
Chain of human CDK7/cycH/MAT1 (P51948 whole entry partner): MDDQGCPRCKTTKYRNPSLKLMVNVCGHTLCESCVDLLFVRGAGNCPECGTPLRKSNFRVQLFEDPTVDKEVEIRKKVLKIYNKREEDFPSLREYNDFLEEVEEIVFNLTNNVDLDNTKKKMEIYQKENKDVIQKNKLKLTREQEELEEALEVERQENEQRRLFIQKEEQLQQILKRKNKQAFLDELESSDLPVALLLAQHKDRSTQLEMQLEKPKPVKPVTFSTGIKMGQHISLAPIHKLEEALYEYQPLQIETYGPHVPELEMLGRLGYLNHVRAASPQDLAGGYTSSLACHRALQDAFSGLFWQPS
Chain of MDR1 (P08183 whole entry): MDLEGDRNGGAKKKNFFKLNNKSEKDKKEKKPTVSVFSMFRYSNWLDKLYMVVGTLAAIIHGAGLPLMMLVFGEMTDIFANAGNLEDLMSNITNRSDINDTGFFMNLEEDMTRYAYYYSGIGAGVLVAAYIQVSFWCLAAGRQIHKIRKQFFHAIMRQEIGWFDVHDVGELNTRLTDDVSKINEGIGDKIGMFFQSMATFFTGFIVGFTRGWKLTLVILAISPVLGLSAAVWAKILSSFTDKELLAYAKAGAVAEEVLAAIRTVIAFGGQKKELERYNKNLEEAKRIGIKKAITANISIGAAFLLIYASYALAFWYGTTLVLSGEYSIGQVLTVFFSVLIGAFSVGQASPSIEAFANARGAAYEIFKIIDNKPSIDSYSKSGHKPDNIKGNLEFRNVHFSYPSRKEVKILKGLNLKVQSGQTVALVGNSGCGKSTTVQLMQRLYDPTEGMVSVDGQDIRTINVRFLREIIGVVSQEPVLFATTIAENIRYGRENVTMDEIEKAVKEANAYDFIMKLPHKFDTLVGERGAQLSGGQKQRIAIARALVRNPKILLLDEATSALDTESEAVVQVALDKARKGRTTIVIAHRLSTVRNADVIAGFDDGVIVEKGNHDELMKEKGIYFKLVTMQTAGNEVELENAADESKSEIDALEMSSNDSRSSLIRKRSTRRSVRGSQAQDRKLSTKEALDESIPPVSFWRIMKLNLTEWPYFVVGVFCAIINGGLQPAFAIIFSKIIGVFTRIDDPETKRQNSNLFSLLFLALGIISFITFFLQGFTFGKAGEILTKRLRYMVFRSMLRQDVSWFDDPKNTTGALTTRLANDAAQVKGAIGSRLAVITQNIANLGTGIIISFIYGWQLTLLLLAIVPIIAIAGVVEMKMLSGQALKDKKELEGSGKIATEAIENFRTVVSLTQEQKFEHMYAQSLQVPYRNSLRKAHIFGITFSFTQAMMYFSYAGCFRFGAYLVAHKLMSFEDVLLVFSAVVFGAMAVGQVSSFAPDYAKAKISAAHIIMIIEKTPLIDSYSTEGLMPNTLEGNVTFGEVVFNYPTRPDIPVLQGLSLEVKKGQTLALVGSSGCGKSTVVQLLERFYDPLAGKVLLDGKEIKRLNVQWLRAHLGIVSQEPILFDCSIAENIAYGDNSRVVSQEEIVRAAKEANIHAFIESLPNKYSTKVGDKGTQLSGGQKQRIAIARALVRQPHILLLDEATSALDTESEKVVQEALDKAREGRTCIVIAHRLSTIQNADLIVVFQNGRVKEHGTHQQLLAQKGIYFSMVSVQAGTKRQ
Chain of BCRP (Q9UNQ0 whole entry): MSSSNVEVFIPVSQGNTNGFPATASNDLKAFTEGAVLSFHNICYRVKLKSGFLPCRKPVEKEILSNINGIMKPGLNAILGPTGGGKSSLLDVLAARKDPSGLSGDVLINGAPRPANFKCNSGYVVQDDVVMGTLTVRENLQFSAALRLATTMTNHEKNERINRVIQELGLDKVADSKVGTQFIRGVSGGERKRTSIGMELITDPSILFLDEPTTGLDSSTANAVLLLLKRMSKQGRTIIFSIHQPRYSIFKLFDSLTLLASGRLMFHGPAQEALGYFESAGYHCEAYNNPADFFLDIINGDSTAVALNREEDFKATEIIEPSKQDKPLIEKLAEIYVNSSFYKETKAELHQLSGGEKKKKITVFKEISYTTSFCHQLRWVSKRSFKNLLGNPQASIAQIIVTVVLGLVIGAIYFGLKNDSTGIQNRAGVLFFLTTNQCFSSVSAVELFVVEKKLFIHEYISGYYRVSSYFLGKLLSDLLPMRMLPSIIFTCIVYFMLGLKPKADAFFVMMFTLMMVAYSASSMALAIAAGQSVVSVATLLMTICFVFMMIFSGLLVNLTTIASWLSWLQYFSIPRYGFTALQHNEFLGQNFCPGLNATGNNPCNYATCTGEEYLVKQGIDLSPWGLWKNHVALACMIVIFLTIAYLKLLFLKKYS

The IC50 is the point on the concentration scale where inhibition reaches its midpoint. In general, fraction unbound refers to free concentration divided by total concentration. A lower fraction unbound goes with extensive binding. By efflux ratio is commonly meant the permeability from basolateral to apical divided by that in the opposite direction, in the common usage. In the case of `O[C@H]1CNCC[C@@H]1CNc1cc(NCc2ccccc2)n2ncc(C3CC3)c2n1` [APPAMP-002, (3R,4R)-4-(((7-(benzylamino)-3-cyclopropylpyrazolo[1,5-a]pyrimidin-5-yl)amino)methyl)piperidin-3-ol], in data set [1], half-maximal inhibition (IC50) was put at 33 nM, the “Ratio CDK2/CDK7” value is reported as 23, the “CDK2/CDK7 Selectivity: Improvement vs. REF-001” value (shortened to “CDK2/CDK7 Selectivity”) came to 1.20 fold and the “CDK7 Potency: Improvement vs. REF-001” value was determined as 1.03 fold. Moreover, in data set [2], the “Free Fraction: Improvement vs. REF-001” value was determined as 2.43 fold; the “Human PPB” value turned out to be 83%; the fraction unbound at 240 min, 5 µM is 0.17. The efflux ratio at 2 h, 10 µM in data set [3] worked out at 5.7. In addition, in data set [4], half-maximal inhibition (IC50) was put at 770 nM. This molecule also registered an IC50 in data set [5] of 210 nM. Also, the efflux ratio at 2 h, 10 µM in data set [6] was determined as 2.

On to `CCc1cnn2c(NCc3cccc(C#N)c3)c(Cl)c(NC[C@H]3CCNC[C@@H]3O)nc12` [APPAMP-004, 3-(((6-chloro-3-ethyl-5-((((3R,4R)-3-hydroxypiperidin-4-yl)methyl)amino)pyrazolo[1,5-a]pyrimidin-7-yl)amino)methyl)benzonitrile], for which, in data set [1], half-maximal inhibition (IC50) was put at 4.2 nM, the “Ratio CDK2/CDK7” value is 571, the “CDK2/CDK7 Selectivity” value is 29.4 fold and the “CDK7 Potency: Improvement vs. REF-001” value is 8.10 fold. Also, the IC50 in data set [4] came to 2400 nM. Besides, half-maximal inhibition in data set [5] (IC50) required 130 nM.

As to `CCc1cnn2c(NCc3ccccc3F)cc(NC[C@H]3CCNC[C@@H]3O)nc12` [APPAMP-001, (3R,4R)-4-(((3-ethyl-7-((2-fluorobenzyl)amino)pyrazolo[1,5-a]pyrimidin-5-yl)amino)methyl)piperidin-3-ol], in data set [1], the IC50 worked out at 13 nM, the “Ratio CDK2/CDK7” value came out at 49, the “CDK2/CDK7 Selectivity” value amounted to 2.54 fold and the “CDK7 Potency: Improvement vs. REF-001” value is given as 2.62 fold. Moreover, in data set [2], the “Free Fraction: Improvement vs. REF-001” value is on record as 2.14 fold; the “Human PPB” value is 85%; the fraction unbound at 240 min, 5 µM is 0.15. Further, in data set [3], the efflux ratio at 2 h, 10 µM stood at 2. Moreover, in data set [4], the midpoint of inhibition, the IC50, lay at 640 nM. In addition, the midpoint of inhibition in data set [5], the IC50, lay at 200 nM. The efflux ratio at 2 h, 10 µM in data set [6] came out at 5.

Turning to `CC(C)c1cnn2c(NCc3ccccc3)cc(NC[C@H]3CCNC[C@@H]3O)nc12` [REF-001, (3R,4R)-4-(((7-(benzylamino)-3-isopropylpyrazolo[1,5-a]pyrimidin-5-yl)amino)methyl)piperidin-3-ol, reference compound], in data set [2], the “Human PPB” value is 93% and the fraction unbound at 240 min, 5 µM is 0.07. In addition, in data set [7], the “effect of the combination with an anti-estrogen on growth of breast cancer cells” value is recorded as “synergistic effects”.

For the molecule `CCc1cnn2c(NCc3cccc(C#N)c3)cc(NC[C@H]3CCNC[C@@H]3O)nc12` [APPAMP-003, 3-(((3-ethyl-5-((((3R,4R)-3-hydroxypiperidin-4-yl)methyl)amino)pyrazolo[1,5-a]pyrimidin-7-yl)amino)methyl)benzonitrile], in data set [1], the IC50 worked out at 8.9 nM, the “Ratio CDK2/CDK7” value was 21, the “CDK2/CDK7 Selectivity” value was determined as 1.10 fold and the “CDK7 Potency: Improvement vs. REF-001” value came to 3.82 fold. Also, the IC50 in data set [4] was 190 nM. The same molecule gave an IC50 in data set [5] of 22 nM.
